The text below walks through data of patent US11130793B2, “GLP-1/GLP-2 dual agonists” (Zealand Pharma A/S, priority 2016, dated 2021).

One test concerns the target T1, human GLP-2 receptor (Homo sapiens, UniProt O95838, D470N).
T1 sequence (O95838 1-553 D470N): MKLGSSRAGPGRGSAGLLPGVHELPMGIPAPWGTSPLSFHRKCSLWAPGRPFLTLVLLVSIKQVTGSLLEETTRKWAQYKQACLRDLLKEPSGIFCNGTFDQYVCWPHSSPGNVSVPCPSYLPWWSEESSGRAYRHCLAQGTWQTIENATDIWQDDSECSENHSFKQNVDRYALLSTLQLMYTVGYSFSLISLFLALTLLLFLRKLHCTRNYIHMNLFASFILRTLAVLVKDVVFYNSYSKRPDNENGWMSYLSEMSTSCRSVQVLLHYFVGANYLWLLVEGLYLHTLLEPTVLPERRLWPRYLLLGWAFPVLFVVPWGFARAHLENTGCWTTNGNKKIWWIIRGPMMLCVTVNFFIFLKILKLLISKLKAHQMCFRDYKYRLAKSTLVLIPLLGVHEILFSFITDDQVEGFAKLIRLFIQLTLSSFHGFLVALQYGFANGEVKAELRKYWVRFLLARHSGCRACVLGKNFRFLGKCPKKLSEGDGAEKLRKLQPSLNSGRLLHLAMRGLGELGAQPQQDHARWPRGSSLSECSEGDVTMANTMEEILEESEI
Nature of the test: GLP-2 receptor potency assay (cAMP AlphaScreen, HEK293 cells stably expressing GLP-2R). The test is classed as cell-based. The settings on record: cAMP response, HEK293 cells expressing human GLP-2R. From the text:
(§1) One useful in vitro assay for measuring GLP-1 and GLP-2 receptor activity is quantitation of cAMP, i.e. 3′-5′-cyclic adenosine monophosphate, which is a second messenger essential in many biological processes, and one of the most ubiquitous mechanisms for regulating cellular functions. […] Test compounds eliciting an increase in the intracellular level of cAMP can be tested in these assays, and the response normalized relative to a positive and negative control (vehicle) to calculate the EC50 and maximal response from the concentration response curve using the 4-parameter logistic (4PL) nonlinear model for curve fitting.
The hGLP2-R was purchased from MRC-geneservice, Babraham, Cambridge as an Image clone: 5363415 (11924-I17). For subcloning into a mammalian expression vector, primers for subcloning were obtained from DNA-Technology, Risskov, Denmark. The 5′ and 3′ primers used for the PCR reaction include terminal restriction sites for cloning and the context of the 5′ primer is modified to a Kozak consensus without changing the sequence of the product encoded by the ORF. A standard PCR reaction was run using Image clone 5363415 (11924-117) as a template with the above mentioned primers and Polymerase Herculase II Fusion in a total vol. of 50 μl. The generated PCR product was purified using GFX PCR and Gel band purification kit, digested with restriction enzymes and cloned into the mammalian expression vector using Rapid DNA Ligation Kit. Ligation reaction was transformed to XL10 Gold Ultracompetent cells and colonies were picked for DNA production using Endofree Plasmid maxi kit. Subsequent sequence analysis was conducted by MWG Eurofins, Germany.
HEK293 cells were transfected using the Lipofectamine PLUS transfection method. The day before transfection, HEK293 cells were seeded in two T75 flasks at a density of 2×10^6 cells/T75 flask in cell culturing medium without antibiotics. On the day of transfection, cells were washed with 1×DPBS and medium was replaced with Optimem to a volume of 5 mL/T75 flask before addition of Lipofectamine-plasmid complexes were added gently and drop wise to the cells in T75 flasks and replaced with growth medium after 3 hours and again to growth medium supplemented with 500 μg/mL G418 after 24 hours. Following 4 weeks in G418 selection, clones were picked and tested in a functional GLP-2 receptor potency assay as described below.
(§2) The cAMP AlphaScreen assay from Perkin Elmer was used to quantitate the cAMP response to activation of the GLP1 and GLP2 receptor, respectively. […] Data from test compounds eliciting an increase in the intracellular level of cAMP were normalized relative to the positive and negative control (vehicle) to calculate the EC50 and maximal response from the concentration response curve.
Background: Bead proximity is the source of the signal in Alpha formats.

In the next test the target is T2, human GLP-1 receptor (Homo sapiens, UniProt P43220).
T2 construct: expressed in transfected cells
Nature of the test: GLP-1 receptor potency assay (cAMP AlphaScreen, HEK293 cells stably expressing GLP-1R). The format is cell-based. The settings on record: cAMP response, HEK293 cells expressing human GLP-1R; read-out: EC50 GLP-1.
Description: as §1
The cDNA encoding the human glucagon-like peptide 1 receptor (GLP-1R) (primary accession number P43220) was cloned from the cDNA BC112126 (MGC:138331/IMAGE:8327594). The DNA encoding the GLP-1-R was amplified by PCR using primers encoding terminal restriction sites for subcloning. The 5′-end primers additionally encoded a near Kozak consensus sequence to ensure efficient translation. […] The PCR products encoding the GLP-1-R were subcloned into a mammalian expression vector containing a neomycin (G418) resistance marker. The mammalian expression vectors encoding the GLP-1-R were transfected into HEK293 cells by a standard calcium phosphate transfection method. 48 hours post-transfection, cells were seeded for limited dilution cloning and selected with 1 mg/ml G418 in the culture medium. Following 3 weeks in G418 selection clones were picked and tested in a functional GLP-1 receptor potency assay as described below.
as §2

Square brackets hold non-standard residues; d marks the D form. Peptide text beside a SMILES is read from it. Aib = CC(C)(N)C(=O)O

T2 sequence (P43220 24-463): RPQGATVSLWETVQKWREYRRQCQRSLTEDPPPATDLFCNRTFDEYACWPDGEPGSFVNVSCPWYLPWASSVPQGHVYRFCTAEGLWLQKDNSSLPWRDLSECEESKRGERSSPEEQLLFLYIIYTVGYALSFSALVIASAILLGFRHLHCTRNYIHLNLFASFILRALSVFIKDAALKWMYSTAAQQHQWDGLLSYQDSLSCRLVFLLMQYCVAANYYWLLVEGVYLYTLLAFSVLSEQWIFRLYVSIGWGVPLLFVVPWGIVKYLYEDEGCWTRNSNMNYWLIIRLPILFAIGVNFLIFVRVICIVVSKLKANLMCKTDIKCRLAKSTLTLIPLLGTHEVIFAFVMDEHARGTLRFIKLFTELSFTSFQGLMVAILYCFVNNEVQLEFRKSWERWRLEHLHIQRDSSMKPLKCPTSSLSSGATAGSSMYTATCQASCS

As usually defined, the EC50 is the concentration giving half of the maximal effect. Consider `CC[C@H](C)[C@H](NC(=O)[C@H](CC(C)C)NC(=O)[C@H](Cc1c[nH]c2ccccc12)NC(=O)[C@H](C)NC(=O)[C@@H](NC(=O)[C@H](Cc1ccccc1)NC(=O)[C@H](CC(=O)O)NC(=O)[C@H](CCCNC(=N)N)NC(=O)[C@H](C)NC(=O)[C@H](C)NC(=O)[C@H](CCCCN)NC(=O)CNC(=O)[C@H](CC(=O)O)NC(=O)[C@H](CC(C)C)NC(=O)[C@@H](NC(=O)[C@@H](NC(=O)[C@H](C)NC(=O)[C@H](CC(C)C)NC(=O)[C@H](CCC(=O)O)NC(=O)[C@H](CO)NC(=O)[C@@H](NC(=O)[C@H](Cc1ccccc1)NC(=O)[C@@H](NC(=O)CNC(=O)[C@H](CCC(=O)O)NC(=O)C(C)(C)NC(=O)[C@@H](N)Cc1c[nH]cn1)[C@@H](C)O)[C@@H](C)O)[C@@H](C)O)[C@@H](C)CC)[C@@H](C)CC)C(=O)N[C@@H](C)C(=O)N[C@@H](Cc1c[nH]cn1)C(=O)N[C@@H](CCCCN)C(=O)N[C@H](C(=O)N[C@H](C(=O)N[C@@H](CC(=O)O)C(=O)O)[C@@H](C)O)[C@@H](C)CC` [Compound 11] (H-H[Aib]EGTFTSELATILDGKAARDFIAWLIAHKITD-OH), for which the concentration for a half-maximal effect (EC50) at human GLP-2 receptor amounted to 0.085 nM; on human GLP-1 receptor it was 0.011 nM.

For `CC[C@H](C)[C@H](NC(=O)[C@H](Cc1ccccc1)NC(=O)[C@H](CC(=O)O)NC(=O)[C@H](CCCNC(=N)N)NC(=O)[C@H](C)NC(=O)[C@H](C)NC(=O)[C@H](CCC(N)=O)NC(=O)[C@H](CCC(=O)O)NC(=O)[C@H](CC(=O)O)NC(=O)[C@H](CC(C)C)NC(=O)[C@@H](NC(=O)[C@@H](NC(=O)[C@H](C)NC(=O)[C@H](CC(C)C)NC(=O)[C@H](CCC(=O)O)NC(=O)[C@H](CO)NC(=O)[C@@H](NC(=O)[C@H](Cc1ccccc1)NC(=O)[C@@H](NC(=O)CNC(=O)[C@H](CCC(=O)O)NC(=O)C(C)(C)NC(=O)[C@@H](N)Cc1c[nH]cn1)[C@@H](C)O)[C@@H](C)O)[C@@H](C)O)[C@@H](C)CC)C(=O)N[C@@H](C)C(=O)N[C@@H](Cc1c[nH]c2ccccc12)C(=O)N[C@@H](CC(C)C)C(=O)N[C@@H](Cc1c[nH]cn1)C(=O)N[C@@H](C)C(=O)N[C@@H](Cc1c[nH]cn1)C(=O)N[C@@H](CCCCN)C(=O)N[C@H](C(=O)N[C@H](C(=O)N[C@@H](CC(=O)O)C(=O)O)[C@@H](C)O)[C@@H](C)CC` [Compound 12] (H-H[Aib]EGTFTSELATILDEQAARDFIAWLHAHKITD-OH), the EC50 is 0.076 nM at human GLP-2 receptor and 0.055 nM on human GLP-1 receptor.

In the case of `CC[C@H](C)[C@H](NC(=O)[C@H](Cc1ccccc1)NC(=O)[C@H](CC(=O)O)NC(=O)[C@H](CCCNC(=N)N)NC(=O)[C@H](C)NC(=O)[C@H](C)NC(=O)[C@H](CCC(N)=O)NC(=O)[C@H](CCC(=O)O)NC(=O)[C@H](CC(=O)O)NC(=O)[C@H](CC(C)C)NC(=O)[C@@H](NC(=O)[C@@H](NC(=O)[C@H](C)NC(=O)[C@H](CC(C)C)NC(=O)[C@H](CCC(=O)O)NC(=O)[C@H](CO)NC(=O)[C@@H](NC(=O)[C@H](Cc1ccccc1)NC(=O)[C@@H](NC(=O)CNC(=O)[C@H](CCC(=O)O)NC(=O)C(C)(C)NC(=O)[C@@H](N)Cc1c[nH]cn1)[C@@H](C)O)[C@@H](C)O)[C@@H](C)O)[C@@H](C)CC)C(=O)N[C@@H](C)C(=O)N[C@@H](Cc1c[nH]c2ccccc12)C(=O)N[C@@H](CC(C)C)C(=O)N[C@@H](CCC(N)=O)C(=O)N[C@@H](C)C(=O)N[C@@H](Cc1c[nH]cn1)C(=O)N[C@@H](CCCCN)C(=O)N[C@H](C(=O)N[C@H](C(=O)N[C@@H](CC(=O)O)C(=O)O)[C@@H](C)O)[C@@H](C)CC` [Compound 13] (H-H[Aib]EGTFTSELATILDEQAARDFIAWLQAHKITD-OH), the EC50 at human GLP-2 receptor worked out at 0.083 nM; at human GLP-1 receptor, 0.016 nM.

On to `CC[C@H](C)[C@H](NC(=O)[C@H](Cc1ccccc1)NC(=O)[C@H](CC(=O)O)NC(=O)[C@H](CCCNC(=N)N)NC(=O)[C@H](C)NC(=O)[C@H](C)NC(=O)[C@H](CCC(N)=O)NC(=O)[C@H](CCC(=O)O)NC(=O)[C@H](CC(=O)O)NC(=O)[C@H](CC(C)C)NC(=O)[C@@H](NC(=O)[C@@H](NC(=O)[C@H](C)NC(=O)[C@H](CC(C)C)NC(=O)[C@H](CCC(=O)O)NC(=O)[C@H](CO)NC(=O)[C@@H](NC(=O)[C@H](Cc1ccccc1)NC(=O)[C@@H](NC(=O)CNC(=O)[C@H](CCC(=O)O)NC(=O)C(C)(C)NC(=O)[C@@H](N)Cc1c[nH]cn1)[C@@H](C)O)[C@@H](C)O)[C@@H](C)O)[C@@H](C)CC)C(=O)N[C@@H](C)C(=O)N[C@@H](Cc1c[nH]c2ccccc12)C(=O)N[C@@H](CC(C)C)C(=O)N[C@@H](Cc1ccc(O)cc1)C(=O)N[C@@H](C)C(=O)N[C@@H](Cc1c[nH]cn1)C(=O)N[C@@H](CCCCN)C(=O)N[C@H](C(=O)N[C@H](C(=O)N[C@@H](CC(=O)O)C(=O)O)[C@@H](C)O)[C@@H](C)CC` [Compound 14] (H-H[Aib]EGTFTSELATILDEQAARDFIAWLYAHKITD-OH), for which the concentration for a half-maximal effect (EC50) turned out to be 0.049 nM on human GLP-2 receptor and 0.021 nM at human GLP-1 receptor.

On to `CC[C@H](C)[C@H](NC(=O)[C@H](Cc1ccccc1)NC(=O)[C@H](CC(=O)O)NC(=O)[C@H](CCCNC(=N)N)NC(=O)[C@H](C)NC(=O)[C@H](C)NC(=O)[C@H](CCC(N)=O)NC(=O)[C@H](CCC(=O)O)NC(=O)[C@H](CC(=O)O)NC(=O)[C@H](CC(C)C)NC(=O)[C@@H](NC(=O)[C@@H](NC(=O)[C@H](C)NC(=O)[C@H](CC(C)C)NC(=O)[C@H](CCC(=O)O)NC(=O)[C@H](CO)NC(=O)[C@@H](NC(=O)[C@H](Cc1ccccc1)NC(=O)[C@@H](NC(=O)CNC(=O)[C@H](CCC(=O)O)NC(=O)C(C)(C)NC(=O)[C@@H](N)Cc1c[nH]cn1)[C@@H](C)O)[C@@H](C)O)[C@@H](C)O)[C@@H](C)CC)C(=O)N[C@@H](C)C(=O)N[C@@H](Cc1c[nH]c2ccccc12)C(=O)N[C@@H](CC(C)C)C(=O)N[C@H](C(=O)N[C@@H](CCC(N)=O)C(=O)N[C@@H](Cc1c[nH]cn1)C(=O)N[C@@H](CCCCN)C(=O)N[C@H](C(=O)N[C@H](C(=O)N[C@@H](CC(=O)O)C(=O)O)[C@@H](C)O)[C@@H](C)CC)[C@@H](C)CC` [Compound 15] (H-H[Aib]EGTFTSELATILDEQAARDFIAWLIQHKITD-OH), for which the EC50 on human GLP-2 receptor turned out to be 0.038 nM; at human GLP-1 receptor it was 0.005 nM.

Take `CC[C@H](C)[C@H](NC(=O)[C@H](Cc1ccccc1)NC(=O)[C@H](CC(=O)O)NC(=O)[C@H](CCCNC(=N)N)NC(=O)[C@H](C)NC(=O)[C@H](C)NC(=O)[C@H](CCC(N)=O)NC(=O)[C@H](CCC(=O)O)NC(=O)[C@H](CC(=O)O)NC(=O)[C@H](CC(C)C)NC(=O)[C@@H](NC(=O)[C@@H](NC(=O)[C@H](C)NC(=O)[C@H](CC(C)C)NC(=O)[C@H](CCC(=O)O)NC(=O)[C@H](CO)NC(=O)[C@@H](NC(=O)[C@H](Cc1ccccc1)NC(=O)[C@@H](NC(=O)CNC(=O)[C@H](CCC(=O)O)NC(=O)C(C)(C)NC(=O)[C@@H](N)Cc1c[nH]cn1)[C@@H](C)O)[C@@H](C)O)[C@@H](C)O)[C@@H](C)CC)C(=O)N[C@@H](C)C(=O)N[C@@H](Cc1c[nH]c2ccccc12)C(=O)N[C@@H](CC(C)C)C(=O)N[C@H](C(=O)N[C@@H](CCCCN)C(=O)N[C@@H](Cc1c[nH]cn1)C(=O)N[C@@H](CCCCN)C(=O)N[C@H](C(=O)N[C@H](C(=O)N[C@@H](CC(=O)O)C(=O)O)[C@@H](C)O)[C@@H](C)CC)[C@@H](C)CC` [Compound 16] (H-H[Aib]EGTFTSELATILDEQAARDFIAWLIKHKITD-OH): the EC50 at human GLP-2 receptor worked out at 0.026 nM; at human GLP-1 receptor it was 0.006 nM.
